Among the data in PMC5507552 (Bioconjugate chemistry, 2017) are IC50 values, retold here.

Each structure is given as a SMILES string.

The test system of the experiment is human HEp2 cells. Conditions: read-out: Dark toxicity (IC50), overnight incubation, Cell Titer Blue, from dose-response curves. In general terms: Alamar Blue is a resazurin reagent that responds to reducing activity.

What is called IC50 is the concentration needed to halve the response being measured. Regarding `COc1ccc(C2=C3C=C(Cl)C(c4ccc(OC)cc4)=[N+]3[B-](F)(F)n3c2cc(Cl)c3-c2ccc(NC(=S)NCCOCCOCCOCCC(=O)N[C@@H](CC(C)C)C(=O)N[C@@H](C)C(=O)N[C@@H](CCCNC(=N)N)C(=O)N[C@@H](CC(C)C)C(=O)N[C@@H](CC(C)C)C(=O)N[C@H](C(N)=O)[C@@H](C)O)cc2)cc1` [Conjugate 8, BODIPY-3PEG-LARLLT-NH2], the half-maximal inhibitory concentration (IC50) was determined as 98 µM.
